# Laboratory results from patent US20100087493A1, “METHOD FOR IMPROVING THE PHARMACOKINETICS OF DRUGS METABOLIZED BY UGT2B10” (priority 2007, published 2010).
# Where two headings read alike, the source gives them in different places.
# T1: Recombinant human UGT2B10 (Homo sapiens, UniProt P36537)
# T1 sequence (P36537 24-528): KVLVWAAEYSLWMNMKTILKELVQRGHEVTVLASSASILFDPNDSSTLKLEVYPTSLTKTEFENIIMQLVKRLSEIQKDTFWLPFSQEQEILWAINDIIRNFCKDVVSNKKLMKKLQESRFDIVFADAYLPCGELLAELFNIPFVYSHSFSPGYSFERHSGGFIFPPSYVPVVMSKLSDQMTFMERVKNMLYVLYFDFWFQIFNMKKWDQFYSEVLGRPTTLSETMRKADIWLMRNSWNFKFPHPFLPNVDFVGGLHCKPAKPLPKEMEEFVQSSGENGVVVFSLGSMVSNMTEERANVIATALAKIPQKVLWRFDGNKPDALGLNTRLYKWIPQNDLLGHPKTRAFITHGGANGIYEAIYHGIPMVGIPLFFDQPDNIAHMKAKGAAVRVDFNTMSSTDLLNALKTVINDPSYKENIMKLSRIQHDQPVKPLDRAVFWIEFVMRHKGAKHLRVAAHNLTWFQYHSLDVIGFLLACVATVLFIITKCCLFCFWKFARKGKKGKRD
# T2: UGT2B10 versus UGT1A4 (Homo sapiens, UniProt P36537)
# T2 construct: made in house; host or cells: baculovirus-infected insect cells (used as cell homogenate)
# T2 sequence (P36537 24-528): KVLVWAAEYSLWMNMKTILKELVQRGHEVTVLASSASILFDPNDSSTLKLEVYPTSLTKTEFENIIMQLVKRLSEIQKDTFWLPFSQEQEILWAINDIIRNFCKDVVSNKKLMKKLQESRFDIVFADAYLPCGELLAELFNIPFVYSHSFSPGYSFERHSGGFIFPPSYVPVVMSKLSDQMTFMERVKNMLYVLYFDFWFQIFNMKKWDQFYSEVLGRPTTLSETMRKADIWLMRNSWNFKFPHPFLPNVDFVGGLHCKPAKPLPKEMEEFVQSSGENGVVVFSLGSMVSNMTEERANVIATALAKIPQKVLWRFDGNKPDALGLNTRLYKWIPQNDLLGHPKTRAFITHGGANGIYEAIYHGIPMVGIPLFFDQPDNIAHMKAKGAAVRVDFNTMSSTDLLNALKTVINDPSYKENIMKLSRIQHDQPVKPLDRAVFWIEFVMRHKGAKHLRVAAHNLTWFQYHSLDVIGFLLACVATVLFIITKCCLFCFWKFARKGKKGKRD
# Tests used:
# [1] = biological target: T1, Recombinant human UGT2B10
# Protocol: For the purpose of identifying compounds which are directly metabolized by UGT2B10, recombinant cells that express UGT2B10 are prepared according to known methods. For example, recombinant UGT2B10 can be expressed in baculovirus-infected insect cells as described e.g. in Kurkela, M. et al., Journal of Biological Chemistry, 278(6), 3536-3544, 2003. The cells expressing UGT2B10 are suspended in water and homogenized using known procedures. Incubation mixture is prepared by mixing recombinant UGT2B10 homogenate and uridine-5-diphospho-glucuronic acid (UDP-GA) as a glucuronic acid source in a suitable buffer such as phosphate buffer pH 7.4. […] The reaction is terminated by protein precipitation, e.g. by addition of trifluoroacetic acid, or acetonitrile if the formed N-glucuronide is expected to be acid-labile, and cooling. Following centrifugation, the supernatants are analysed for the presence of glucuronidated derivative of the test compound, wherein any suitable analyzing method can be used. High pressure liquid chromatography followed by mass spectrometry is the preferred method. The glucuronides are quantified using authentic glucuronide standards or another suitable methods such as substrate depletion. The enzyme activity of UGT2B10 towards the tested compound is calculated as the amount of glucuronide formed (pmol) divided by incubation time (min) and protein amount (mg/incubation). Example 1 of the present application describes a procedure suitable for identifying compounds that are glucuronidated by UGT2B10.
# Recombinant human UGT2B10 were produced in baculovirus-infected insect cells and used as cell homogenate after suspending the cells with water. The glucuronidation rates were determined by incubating the substrates, nicotine and cotinine, with the enzyme UGT2B10 using uridine-5′-diphosphoglucuronic acid (UDP-GA) as a cofactor. The reaction mixtures were incubated at +37° C. for 1-2 hours. The samples were analyzed by high-performance liquid chromatography-mass spectrometry (HPLC-MS). The formed glucuronides were quantified using authentic glucuronide standards. The enzyme activity of UGT2B10 towards the tested compound was calculated as pmol glucuronide formed divided by incubation time (min) and protein amount (mg/incubation).
# [2] = biological target: UGT1A4 (Homo sapiens, UniProt P22310); experiment: biochemical
# Protocol: (§1) For the purpose of identifying a compound which acts as UGT2B10 modulator, recombinant cells that express UGT2B10 are prepared as described above. The cells expressing UGT2B10 are suspended in water and homogenized using known procedures. The incubation mixture is prepared by mixing recombinant UGT2B10 homogenate and uridine-5-diphosphoglucuronic acid (UDP-GA) as a glucuronic acid source in a suitable buffer such as phosphate buffer pH 7.4. […] The reaction is terminated as described above. Following centrifugation, the supernatants are analyzed and quantified for the presence of glucuronidated derivative of the substrate as described above. The UGT2B10 enzyme activity towards the substrate, in the absence and presence of the modulator, is calculated as the amount of glucuronide formed (pmol) divided by incubation time (min) and protein amount (mg/incubation). The effect of the modulator, inhibition or activation, on the enzyme activity towards the substrate is calculated as % enzyme activity at each modulator concentration compared to the enzyme activity measured in the absence of the modulator. IC50, inhibitor concentration that inhibits the activity by 50%, is used as the measure of the inhibitory effect, and the activation effect is calculated as % increase in enzyme activity. […]
# (§2) The samples were analyzed by high-performance liquid chromatography-mass spectrometry (HPLC-MS).
# [3] = biological target: T1, Recombinant human UGT2B10; experiment: biochemical
# Protocol: as §1, §2
# [4] = biological target: T2, UGT2B10 versus UGT1A4; experiment: Km of nicotine glucuronidation, UGT2B10; type: in vitro ADME; settings: read-out: Km for UGT2B10 fold less compared to UGT1A4 (selectivity)
# Text: (§3) The reaction is terminated as described above. […] 1.1 (SPSS Inc., Chicago, Ill.).
# (§4) 1.1 (SPSS Inc., Chicago, Ill.) software.
# [5] = in vitro; settings: human, human liver microsomes
# Protocol: The reaction is terminated as described above.
# The reaction mixtures were incubated at +37° C. for 1-2 hours. The samples were analyzed by high-performance liquid chromatography-mass spectrometry (HPLC-MS).
# [6] = substrate: CN1CCCC1c1cccnc1; experiment: Km of nicotine glucuronidation, UGT1A4; type: in vitro ADME, human; settings: other: nicotine glucuronidation, 0.002-2 mM, microsomal membranes; pH 7.4; 37.0 °C
# Text: as §3, §4
# [7] = substrate: CN1CCCC1c1cccnc1; experiment: Km of nicotine glucuronidation, UGT2B10; type: in vitro ADME, human; settings: other: nicotine glucuronidation, 0.002-2 mM, cell homogenate; pH 7.4; 37.0 °C
# Text: as §3, §4
molecule,measurement,setting,value
"CN1C(=O)CC[C@H]1c1cccnc1 [Cotinine, cotinine]",substrate for UGT2B10,[1]; human,substrates for UGT2B10
same,UGT2B10 activity,"[1]; human, 2 mM",12.7 pmol/min/mg prot.
"Cc1cccc(C(C)c2cnc[nH]2)c1C (stereo in doubt) [Levomedetomidine, (S)-4-[1-(2,3-dimethylphenyl)-ethyl]-3H-imidazole]",IC50,[2],> 1000 µM
same,IC50,[3],13 µM
"CN1CCCC1c1cccnc1 (stereo not shown) [Nicotine, nicotine]",selectivity ratio,[4],8
same,UGT2B10 activity,"[1]; in vitro, 2 mM substrate concentration, cell homogenate",2.9 pmol/min/mg prot.
same,substrate for UGT2B10,"[1]; in vitro, cell homogenate",substrates for UGT2B10
same,Km,[5],330 µM
"recombinant human UGT1A4 (Homo sapiens) (protein, made in house; host or cells: baculovirus-infected insect cells (microsomal membranes isolated)) GKVLVVPTDGSPWLSMREALRELHARGHQAVVLTPEVNMHIKEEKFFTLTAYAVPWTQKEFDRVTLGYTQGFFETEHLLKRYSRSMAIMNNVSLALHRCCVELLHNEALIRHLNATSFDVVLTDPVNLCGAVLAKYLSIPAVFFWRYIPCDLDFKGTQCPNPSSYIPKLLTTNSDHMTFLQRVKNMLYPLALSYICHTFSAPYASLASELFQREVSVVDLVSYASVWLFRGDFVMDYPRPIMPNMVFIGGINCANGKPLSQEFEAYINASGEHGIVVFSLGSMVSEIPEKKAMAIADALGKIPQTVLWRYTGTRPSNLANNTILVKWLPQNDLLGHPMTRAFITHAGSHGVYESICNGVPMVMMPLFGDQMDNAKRMETKGAGVTLNVLEMTSEDLENALKAVINDKSYKENIMRLSSLHKDRPVEPLDLAVFWVEFVMRHKGAPHLRPAAHDLTWYQYHSLDVIGFLLAVVLTVAFITFKCCAYGYRKCLGKKGRVKKAHKSKTH",Km,[6],2400 µM
"Recombinant human UGT2B10 (Homo sapiens) (protein, made in house; host or cells: baculovirus-infected insect cells (used as cell homogenate)) KVLVWAAEYSLWMNMKTILKELVQRGHEVTVLASSASILFDPNDSSTLKLEVYPTSLTKTEFENIIMQLVKRLSEIQKDTFWLPFSQEQEILWAINDIIRNFCKDVVSNKKLMKKLQESRFDIVFADAYLPCGELLAELFNIPFVYSHSFSPGYSFERHSGGFIFPPSYVPVVMSKLSDQMTFMERVKNMLYVLYFDFWFQIFNMKKWDQFYSEVLGRPTTLSETMRKADIWLMRNSWNFKFPHPFLPNVDFVGGLHCKPAKPLPKEMEEFVQSSGENGVVVFSLGSMVSNMTEERANVIATALAKIPQKVLWRFDGNKPDALGLNTRLYKWIPQNDLLGHPKTRAFITHGGANGIYEAIYHGIPMVGIPLFFDQPDNIAHMKAKGAAVRVDFNTMSSTDLLNALKTVINDPSYKENIMKLSRIQHDQPVKPLDRAVFWIEFVMRHKGAKHLRVAAHNLTWFQYHSLDVIGFLLACVATVLFIITKCCLFCFWKFARKGKKGKRD",Km,[7],290 µM
